Results on 11 compounds are retold here after PubChem BioAssay AID282 (DTP/NCI, 2004).

Where “and” joins values, the source holds several entries; their conditions need not be identical. Equal entries are not always repeated. Inconclusive results and toxic doses are left out.

This experiment has as its system BDF1 mice, L1210 terephthalanilide-resistant leukemia ip, survival T/C. The experiment in a line: NCI In Vivo Anticancer Drug Screen. Data for tumor model L1210 Leukemia resistant to A Terephthalanilide; NSC 38280 (intraperitoneal) in B6D2F1 (BDF1) mice. The conditions noted are these: endpoint: mean survival time, higher = longer survival. How it is done: The antitumor activity of compounds was measured in mice bearing transplantable tumors. Survival or tumor size were measured and the results are expressed as the measurement made in the treated group (T) divided by the measurement made in the vehicle treated control group (C). The tumor model used in this assay is L1210 Leukemia resistant to A Terephthalanilide; NSC 38280 (intraperitoneal) in B6D2F1 (BDF1) mice

The mark [1] stands for this setting: dose: 25.0 mg/kg/injection, schedule: Q01DX010 (ip), vehicle: saline.
[2] abbreviates: dose: 50.0 mg/kg/injection, schedule: Q01DX010 (ip), vehicle: saline.
Where [3] appears, read: dose: 200.0 mg/kg/injection, schedule: Q01DX010 (ip), vehicle: saline.
Setting [4] is: dose: 2.0 mg/kg/injection, schedule: Q01DX Z (ip), vehicle: carboxymethylcellulose (CMC).
The mark [5] stands for this setting: dose: 2.0 mg/kg/injection, schedule: Q01DX010 (ip), vehicle: saline.
Setting [6] is: dose: 4.0 mg/kg/injection, schedule: Q01DX010 (ip), vehicle: saline.
The mark [7] stands for this setting: dose: 16.0 mg/kg/injection, schedule: Q01DX010 (ip), vehicle: saline.
[8] abbreviates: dose: 50.0 mg/kg/injection, schedule: Q01DX Z (ip), vehicle: saline.
Where [9] appears, read: dose: 100.0 mg/kg/injection, schedule: Q01DX Z (ip), vehicle: saline.
The mark [10] stands for this setting: dose: 250.0 mg/kg/injection, schedule: Q01DX Z (ip), vehicle: saline.
Where [11] appears, read: dose: 500.0 mg/kg/injection, schedule: Q01DX Z (ip), vehicle: saline.
Setting [12] is: dose: 750.0 mg/kg/injection, schedule: Q01DX Z (ip), vehicle: saline.

For the compound `CSc1ncnc2nc[nH]c12`, the T/C under setting [1] was 98 % of control and 100 % of control; the T/C (dose: 31.25 mg/kg/injection, schedule: Q01DX Z (ip), vehicle: carboxymethylcellulose (CMC)) was 102 % of control; the T/C under setting [2] is 100 % of control and 102 % of control; the T/C (dose: 62.5 mg/kg/injection, schedule: Q01DX Z (ip), vehicle: carboxymethylcellulose (CMC)) is 105 % of control; the T/C (dose: 100.0 mg/kg/injection, schedule: Q01DX010 (ip), vehicle: saline) is 102 % of control and 107 % of control; the T/C (dose: 125.0 mg/kg/injection, schedule: Q01DX Z (ip), vehicle: carboxymethylcellulose (CMC)) is 113 % of control. Also, the T/C under setting [3] was 102 % of control and 105 % of control.

As to `Cn1cnc([N+](=O)[O-])c1Sc1nc(N)nc2nc[nH]c12`, the T/C is, setting by setting: (dose: 0.5 mg/kg/injection, schedule: Q01DX Z (ip), vehicle: carboxymethylcellulose (CMC)) 117 % of control; under setting [4], 191 % of control; (dose: 3.75 mg/kg/injection, schedule: Q01DX Z (ip), vehicle: carboxymethylcellulose (CMC)) 170 % of control; (dose: 10.0 mg/kg/injection, schedule: Q01DX Z (ip), vehicle: carboxymethylcellulose (CMC)) 120 % of control.

In the case of `C=CC(CN1CC1)OC(C)=O` (stereo not drawn), the T/C was 101 % of control under setting [5], 119 % of control under setting [6] and 114 % of control under setting [7].

For `CN(C)c1ccc(/C=C/c2ccnc3ccccc23)cc1`, the T/C under setting [6] is 96 % of control and 97 % of control; the T/C (dose: 6.25 mg/kg/injection, schedule: Q01DX Z (ip), vehicle: saline) is 90 % of control; the T/C (dose: 8.0 mg/kg/injection, schedule: Q01DX010 (ip), vehicle: saline) was 100 % of control and 101 % of control; the T/C (dose: 12.5 mg/kg/injection, schedule: Q01DX Z (ip), vehicle: saline) is 100 % of control; the T/C under setting [7] is 99 % of control and 100 % of control; the T/C (dose: 25.0 mg/kg/injection, schedule: Q01DX Z (ip), vehicle: saline) is 100 % of control. Further, the T/C is 101 % of control (dose: 32.0 mg/kg/injection, schedule: Q01DX010 (ip), vehicle: saline); 90 % of control under setting [8]; 96 % of control and 100 % of control (dose: 75.0 mg/kg/injection, schedule: Q01DX Z (ip), vehicle: saline); 94 % of control and 108 % of control under setting [9]; 96 % of control and 102 % of control (dose: 150.0 mg/kg/injection, schedule: Q01DX Z (ip), vehicle: saline); 94 % of control (dose: 200.0 mg/kg/injection, schedule: Q01DX Z (ip), vehicle: saline).

As to `CN(C)/N=N/c1nc[nH]c1C(N)=O`, the T/C is, setting by setting: under setting [1], 123 % of control and 101 % of control; under setting [2], 114 % of control; under setting [3], 102 % of control.

As to `C=C1C[C@H]2[C@@H]3C=C(C)C4=CC(=O)CC[C@]4(C)[C@H]3CC[C@]2(C)[C@@]1(OC(C)=O)C(C)=O`, the T/C reads like this: (dose: 62.5 mg/kg/injection, schedule: Q01DX010 (sc), vehicle: steriod suspending solution) 101 % of control; (dose: 125.0 mg/kg/injection, schedule: Q01DX010 (sc), vehicle: steriod suspending solution) 93 % of control; (dose: 250.0 mg/kg/injection, schedule: Q01DX010 (sc), vehicle: steriod suspending solution) 97 % of control; (dose: 500.0 mg/kg/injection, schedule: Q01DX010 (sc), vehicle: steriod suspending solution) 95 % of control.

As for `O=C(Nc1ccc(NC2=NCCN2)cc1)c1ccc(C(=O)Nc2ccc(NC3=NCCN3)cc2)cc1`, the T/C by setting is: under setting [5], 112 % of control and 113 % of control; under setting [6], 115 % of control; under setting [7], 122 % of control and 115 % of control.

For the compound `C[N+](C)(C)c1ncnc2nc[nH]c12`, the T/C (dose: 15.0 mg/kg/injection, schedule: Q01DX010 (ip), vehicle: saline) was 92 % of control; the T/C (dose: 30.0 mg/kg/injection, schedule: Q01DX010 (ip), vehicle: saline) is 110 % of control; the T/C (dose: 37.0 mg/kg/injection, schedule: Q01DX Z (ip), vehicle: saline) is 102 % of control.

Regarding `CC(=O)N(C)C`, the T/C is, setting by setting: (dose: 62.5 mg/kg/injection, schedule: Q01DX010 (ip), vehicle: saline) 94 % of control and 105 % of control; (dose: 125.0 mg/kg/injection, schedule: Q01DX010 (ip), vehicle: saline) 92 % of control and 97 % of control; (dose: 125.0 mg/kg/injection, schedule: Q01DX Z (ip), vehicle: saline) 108 % of control; (dose: 250.0 mg/kg/injection, schedule: Q01DX010 (ip), vehicle: saline) 90 % of control and 96 % of control; under setting [10], 112 % of control; (dose: 500.0 mg/kg/injection, schedule: Q01DX010 (ip), vehicle: saline) 96 % of control and 105 % of control. The T/C by setting is: under setting [11], 110 % of control; under setting [12], 114 % of control.

As for `O=c1cnn(C2OC(CO)C(O)C2O)c(=O)[nH]1` (stereo not drawn), the T/C under setting [8] is 172 % of control; the T/C under setting [9] is 164 % of control; the T/C (dose: 187.0 mg/kg/injection, schedule: Q01DX Z (ip), vehicle: saline) is 181 % of control; the T/C under setting [10] was 224 % of control; the T/C (dose: 375.0 mg/kg/injection, schedule: Q01DX Z (ip), vehicle: saline) is 218 % of control; the T/C under setting [11] was 225 % of control. Besides, the T/C runs as follows: under setting [12], 222 % of control; (dose: 800.0 mg/kg/injection, schedule: Q01DX010 (ip), vehicle: saline) 167 % of control; (dose: 1000.0 mg/kg/injection, schedule: Q01DX Z (ip), vehicle: saline) 182 % of control; (dose: 1600.0 mg/kg/injection, schedule: Q01DX010 (ip), vehicle: saline) 86 % of control.

Consider `O=C(O)CCCc1ccc(N(CCCl)CCCl)cc1`, for which the T/C reads like this: under setting [4], 101 % of control; (dose: 3.0 mg/kg/injection, schedule: Q01DX Z (ip), vehicle: carboxymethylcellulose (CMC)) 106 % of control; (dose: 4.0 mg/kg/injection, schedule: Q01DX Z (ip), vehicle: carboxymethylcellulose (CMC)) 112 % of control; (dose: 5.0 mg/kg/injection, schedule: Q01DX Z (ip), vehicle: carboxymethylcellulose (CMC)) 119 % of control; (dose: 6.25 mg/kg/injection, schedule: Q01DX Z (ip), vehicle: carboxymethylcellulose (CMC)) 115 % of control; (dose: 12.5 mg/kg/injection, schedule: Q01DX Z (ip), vehicle: carboxymethylcellulose (CMC)) 118 % of control.
